Source: patent publication US8975399B2, “Benzenesulfon amide-compound treatment of a pathological condition linked to an excessive effect of TNF” (priority 2010, dated 2015)

These compounds were tested against T1, human TNF-alpha (Homo sapiens, UniProt P01375) (assay: Apoptosis induced by human TNF-alpha on murine L929 cells (MTT survival)). Details: compound 10 μM, human TNF-alpha 0.150 ng/ml, 24 hours, % survival based on control cells without TNF.
T1 construct: purchased R & D Diagnostics
Format: cell-based
Procedure: The compounds are dissolved in DMSO to be used in vitro or in vivo by oral route, and in Cremophor® for their use in vivo by intraperitoneal route.
The cells were cultured in DMEM medium with 10% fcetal calf serum added. 4×10^4 cells in 100 μl of culture medium were exposed to human TNF-alpha (R & D Diagnostics) at 0.150 ng/ml for 24 hours in 96-well plates, and the tested compound was added at a final concentration of 100 μM or 10 μM. A solution of MTT dye was added (100 μl at 0.5 mg/ml) to each well over two hours in order to measure cell survival. The absorbance was measured at 570 nm using a BMG Fluostar microplate reader. The inhibitory activity of the products was expressed as a calculated % survival based on the control cells without the addition of TNF.

T1 sequence (P01375 77-233 limits assumed): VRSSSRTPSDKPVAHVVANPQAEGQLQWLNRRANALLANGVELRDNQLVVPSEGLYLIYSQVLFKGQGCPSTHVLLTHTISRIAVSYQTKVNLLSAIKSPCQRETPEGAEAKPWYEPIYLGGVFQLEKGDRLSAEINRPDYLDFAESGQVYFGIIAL

| Compound | % Inhibition 10 μM [%] |
| --- | --- |
| 3-(4-fluorophenyl)-4-oxo-4H-chromen-7-ylN-[(4-methylphenyl)sulphonyl]-beta-alaninate [Compound 24] | 50.26 |
| CCOc1ccc(S(=O)(=O)Nc2cc3c(C(C)=O)c(C)oc3c3ccccc23)cc1 [16 (1), N-(3-acetyl-2-methylnaphthho[1,2-b]furan-5-yl)-4-ethoxybenzene sulphonamide] | 80.40 |
| COc1ccc(S(=O)(=O)N(CC(=O)N2CCN(c3ccccc3OC)CC2)Cc2ccccc2)cc1C [32 (3), N-benzyl-4-methoxy-N-{2-[4-(2-methoxyphenyl)-1-piperazinyl]-2-oxoethyl}-3-methylbenzenesulphonamide] | 69.73 |
| COc1ccccc1N1CCN(C(=O)CN(Cc2ccccc2)S(=O)(=O)c2ccc(Cl)cc2)CC1 [66 (14), N-benzyl-4-chloro-N-{2-[4-(2-methoxyphenyl)-1-piperazinyl]-2-oxoethyl}benzenesulphonamide] | 67.4 |
| COc1ccccc1N1CCN(C(=O)CN(Cc2ccccc2)S(=O)(=O)c2ccc(Br)cc2)CC1 [67 (15), N-benzyl-4-bromo-N-{2-[4-(2-methoxyphenyl)-1-piperazinyl]-2-oxoethyl}benzenesulphonamide] | 61.8 |
| Cc1ccc(S(=O)(=O)N(CC(=O)N2CCN(Cc3ccccc3)CC2)c2ccc(C)c(C)c2)cc1 [72 (21), N-[2-(4-benzyl-1-piperazinyl)-2-oxoethyl]-N-(3,4-dimethylphenyl)-4-methylbenzenesulphonamide] | 53.4 |
| Cc1c(Cl)cccc1N(CC(=O)N1CCN(Cc2ccccc2)CC1)S(=O)(=O)c1ccccc1 [73 (23), N-[2-(4-benzyl-1-piperazinyl)-2-oxoethyl]-N-(3-chloro-2-methylphenyl)benzenesulphonamide] | 44.8 |
| COc1ccc(S(=O)(=O)Nc2cc3c(C(C)=O)c(C)oc3cc2C)cc1 [Compound 1, N-(3-acetyl-2,6-dimethyl-1-benzofuran-5-yl)-4-methoxybenzene sulphonamide] | 71.15 |
| COC(=O)c1c(C)oc2ccc(NS(=O)(=O)c3ccc(OC)cc3)cc12 [Compound 2, methyl 5-{[(4-methoxyphenyl)sulphonyl]amino}-2-methyl-1-benzofuran-3-carboxylate] | 57.51 |
| COC(=O)c1c(C)oc2ccc(NS(=O)(=O)c3ccc(C)cc3)cc12 [Compound 3, methyl 2-methyl-5-{[(4-methylphenyl)sulphonyl]amino}-1-benzofuran-3-carboxylate] | 48.09 |
| Cc1ccc(-c2nnc(NCc3ccccc3)c3ccccc23)cc1S(=O)(=O)NCC1CCCO1 (stereo not shown) [Compound 23, 5-[4-(benzylamino)-1-phthalazinyl]-2-methyl-N-(tetrahydro-2-furanylmethyl)benzenesulphonamide] | 44.74 |
| COc1ccc(NC(=O)CN(Cc2cccc(Cl)c2)S(=O)(=O)c2ccc(C)cc2)c(OC)c1 [Compound 33, N˜2˜-(3-chlorobenzyl)-N˜1˜-(2,4-dimethoxyphenyl)-N˜2˜-[(4-methylphenyl)sulphonyl]glycinamide] | 52.4 |
| COc1ccc(OC)c(N(CC(=O)Nc2cccc(C(C)=O)c2)S(=O)(=O)c2ccc(C)cc2)c1 [Compound 34, N˜1˜-(3-acetylphenyl)-N-˜2˜-(2,5-dimethoxyphenyl)-N˜2˜-[(4-methylphenyl)sulphonyl]glycinamide] | 42.26 |
| COc1ccccc1N1CCN(C(=O)CN(Cc2ccc(F)cc2)S(=O)(=O)c2ccc(Cl)cc2)CC1 [Compound 71, 4-chloro-N-(4-fluorobenzyl)-N-{2-[4-(2-methoxyphenyl)-1-piperazinyl]-2-oxoethyl}benzenesulphonamide] | 53.6 |
| CC1CCN(C(=O)CN(Cc2ccc(Cl)c(Cl)c2)S(=O)(=O)c2ccc(Cl)cc2)CC1 [Compound 74, 4-chloro-N-(3,4-dichlorobenzyl)-N-[2-(4-methyl-1-piperidinyl)-2-oxoethyl]benzenesulphonamide] | 45.6 |
| COc1ccccc1N1CCN(C(=O)CN(Cc2ccccc2)S(=O)(=O)c2ccc(F)cc2)CC1 [Compound 75, N-benzyl-4-fluoro-N-{2-[4-(2-methoxyphenyl)-1-piperazinyl]-2-oxoethyl}benzenesulphonamide] | 44.7 |

| Compound | % Inhibition 10 μM [%] |
| --- | --- |
| Cc1ccc(S(=O)(=O)N(CC(=O)N2CCN(Cc3ccccc3)CC2)c2cc(C)cc(C)c2)cc1 [Compound 76, N-[2-(4-benzyl-1-piperazinyl)-2-oxoethyl]-N-(3,5-dimethylphenyl)-4-methylbenzenesulphonamide] | 35.5 |
| COc1ccc(S(=O)(=O)N(CC(=O)N2CCN(c3ccccc3F)CC2)Cc2ccccc2)cc1 [Compound 77, N-benzyl-N-{2-[4-(2-fluorophenyl)-1-piperazinyl]-2-oxoethyl}-4-methoxybenzenesulphonamide] | 32.8 |
| COc1ccc(S(=O)(=O)N(CC(=O)N2CCc3ccccc3C2)c2cc(C)cc(C)c2)cc1OC [Compound 78, N-[2-(3,4-dihydro-2(1H)-isoquinolinyl)-2-oxoethyl]-N-(3,5-dimethylphenyl)-3,4-d imethoxybenzenesulphonamide] | 38.4 |
| COc1ccc(S(=O)(=O)N(CC(=O)N2CCN(c3ccccc3)CC2)c2ccc(C)cc2)cc1OC [Compound 79, 3,4-dimethoxy-N-(4-methylphenyl)-N-[2-oxo-2-(4-phenyl-1-piperazinyl)ethyl]benzenesulphonamide] | 36.8 |
| Cc1ccc(CN(CC(=O)N2CCN(c3ccc(F)cc3)CC2)S(=O)(=O)c2ccccc2)cc1 [Compound 80, N-{2-[4-(4-fluorophenyl)-1-piperazinyl]-2-oxoethyl}-N-(4-methylbenzyl)benzenesulphonamide] | 34.3 |
| Cc1ccc(S(=O)(=O)N(CC(=O)N2CCC(Cc3ccccc3)CC2)c2ccc(F)cc2)cc1 [Compound 81, N-[2-(4-benzyl-1-piperidinyl)-2-oxoethyl]-N-(4-fluorophenyl)-4-methylbenzenesulphonamide] | 34.8 |
| Cc1ccc(S(=O)(=O)N(CC(=O)N2CCN(Cc3ccccc3)CC2)c2ccccc2C)cc1 [Compound 82, N-[2-(4-benzyl-1-piperazinyl)-2-oxoethyl]-4-methyl-N-(2-methylphenyl)benzenesulphonamide] | 34.6 |
| COc1ccc(S(=O)(=O)N(CC(=O)N2CCN(c3ccc(F)cc3)CC2)Cc2ccccc2)cc1OC [Compound 84, N-benzyl-N-{2-[4-(4-fluorophenyl)-1-piperazinyl]-2-oxoethyl}-3,4-dimethoxybenzenesulphonamide] | 33.6 |
| N-(1,2-dihydro-5-acenaphthhylenyl)-2.4,6-trimethylbenzenesulphonamide [Compound 26] | 43.84 |
| N-(1′,2-dihydroxy-1.2′-binaphthhalen-4′-yl)-4-methoxybenzene-sulphonamide [Compound 21] | 53.45 |
| N-[2-(4-benzyl-1-piperazinyl)-2-oxoethyl]-N-(3-chlorophenyl)-4-methyl benzenesulphonamide [65 (13)] | 61.4 |
| N-[2-(4-benzyl-1-piperazinyl)-2-oxoethyl]-N-(4-chlorophenyl)-4-methyl benzenesulphonamide [68 (16)] | 56.2 |
| N-benzyl-4-methyl-N-[2-oxo-2-(4-phenyl-1-piperazinyl)pethyl]benzenesulphonamide [69 (18)] | 61.3 |
| N-{2-[4-(2-fluorophenyl)-1-piperazinyl]-2-oxoethyl}-N-(4-methylbenzyl) benzenesulphonamide [70 (19)] | 54.0 |
| N-{2-[4-(diphenylmethyl)-1-piperazinyl]-2-oxoethyl}-N,4-dimethyl benzenesulphonamide [Compound 85] | 32.1 |
